From patent US10206902B2, “Mono- or di-substituted indoles as dengue viral replication inhibitors” (priority 2014, dated 2019) come the findings set out here.

Assay type in all cases: cell-based
Data set [1] relates to Vero cells. As to the kind of experiment: in vitro. The settings on record: African green monkey. Summed up: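 Cytotoxicity read on the same Vero plates after the eGFP read-out: resazurin added, incubated a further 5 h at 37° C, 5% CO2, fluorescence read at 530 nm excitation. CC50 is the concentration reducing resazurin conversion by 50% versus cell-control wells; SI = CC50/EC50.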

The test system of data set [2] is DENV-1 strain TC974#666. In words: Tetravalent RT-qPCR assay Protocol A, serotype 1. The settings on record: Dengue virus, DENV1, 72 h, RT-qPCR serotype 1 TC974#666, Vero cells, day 3. On the procedure:
(§1) The antiviral activity of the compounds of the invention was tested against DENV-1 strain TC974#666 (NCPV), DENV-2 strain 16681, DENV-3 strain H87 (NCPV) and DENV-4 strains H241 (NCPV) and EDEN (SG/06K2270DK1/2005; GenBank accession number QG398256) in a RT-qPCR assay. Therefore, Vero cells were infected with either DENV-1, or -2, or -3, or -4 in the presence or absence of test compounds. At day 3 post-infection, the cells were lysed and cell lysates were used to prepare cDNA of both a viral target (the 3′UTR of DENV; table 2) and a cellular reference gene (β-actin, table 2). Subsequently, a duplex real time PCR was performed on a Lightcycler480 instrument. The generated Cp value is inversely proportional to the amount of RNA expression of these targets. Inhibition of DENV replication by a test compound result in a shift of Cp's for the 3′UTR gene. On the other hand, if a test compound is toxic to the cells, a similar effect on β-actin expression will be observed. The comparative ΔΔCp method is used to calculate EC50, which is based on the relative gene expression of the target gene (3′UTR) normalized with the cellular housekeeping gene (β-actin). In addition, CC50 values were determined based on the Cp values acquired for the housekeeping gene β-actin.
(§2) The culture medium consisted of minimal essential medium supplemented with 2% of heat-inactivated fetal calf serum, 0.04% gentamycin (50 mg/mL) and 2 mM of L-glutamine. Vero cells, obtained from ECACC, were suspended in culture medium and 75 μL/well was added in 96-well plates (10000 cells/well), which already contain the antiviral compounds. Typically, these plates contain a 4-fold serial dilution of 9 dilution steps of the test compound at 200 times the final concentration in 100% DMSO (500 nL; final concentration range: 25 μM-0.00038 μM). In addition, each plate contains wells which are assigned as virus controls (containing cells and virus in the absence of compound) and cell controls (containing cells in the absence of virus and compound). Once the cells were added in the plates, the plates were incubated in a fully humidified incubator (37° C., 5% CO2) until the next day. Then, DENV-1 strain TC974#666, DENV-2 strain 16681, DENV-3 strain H87 or DENV-4 strains H241 or EDEN were added. […] In parallel, 25 μL of culture medium was added to the cell controls. Next, the plates were incubated for 3 days in a fully humidified incubator (37° C., 5% CO2). After 3 days, the supernatant was removed from the wells and the cells were washed twice with ice-cold PBS (˜100 μL). The cell pellets within the 96-well plates were stored at −80° C. for at least 1 day. Next, RNA was extracted using the Cells-to-CT™ lysis kit, according to the manufacture's guideline (Applied Biosystems). The cell lysates can be stored at −80° C. or immediately used in the reverse transcription step. In preparation of the reverse transcription step, mix A (table 3A) was prepared and 7.57 μL/well was dispensed in a 96-well plate. After addition of 5 μL of the cell lysates, a five minute denaturation step at 75° C. was performed (table 3B). Afterwards, 7.43 μL of mix B was added (table 3C) and the reverse transcription step was initiated (table 3D) to generate cDNA.
(§3) Finally, a RT-qPCR mix was prepared, mix C (table 4A), dispensed in 96-well LightCycler qPCR plates to which 3 μL of cDNA was added and the qPCR was performed according to the conditions in table 4B on a LightCycler 480. Using the LightCycler software and an in-house LIMS system, dose response curves for each compound were calculated and the half maximal effective concentration (EC50) and the half maximal cytotoxic concentration (CO50) were determined (Tables 6-9).

Data set [3] relates to DENV-4 strain H241. In words: Tetravalent RT-qPCR assay Protocol A, serotype 4 H241. The settings on record: Dengue virus, DENV4, 72 h, RT-qPCR serotype 4 H241, Vero cells, day 3. As to the method:
as §1, §2, §3

Data set [4] can be described thus: in vitro. The following applies: African green monkey. On the procedure:
as §1, §2, §3

In data set [5] the test system is uninfected Vero cells. As to the kind of experiment: in vitro. The following applies: African green monkey. On the procedure: Potential cytotoxic effects of the compounds were evaluated in uninfected Vero cells. Cells were seeded at 4×10^4 cells/well in a 96-well plate in the presence of two-, three- or five-fold serial dilutions (ranging from 50 μg/mL-0.0038 μg/mL, 50 μg/mL-0.0076 μg/mL, and 50 μg/mL-0.00013 μg/mL, respectively) of compound and incubated for 4 to 7 days. Culture medium was discarded and 100 μL 3-(4,5-dimethylthiazol-2-yl)-5-(3-carboxymethoxyphenyl)-2-(4-sulfophenyl)-2H-tetrazolium/phenazinemethosulfate (MTS/PMS; Promega, Leiden, The Netherlands) in PBS was added to each well. Following a 2-hour incubation period at 37° C., the optical density was determined at 498 nm. Cytotoxic activity was calculated using the following formula: % cell viability=100×(ODCompound/ODCC), where ODcompound and ODCC correspond to the optical density at 498 nm of the uninfected cell cultures treated with compound and that of uninfected, untreated cell cultures, respectively. The 50% cytotoxic concentration (i.e., the concentration that reduces the total cell number with 50%; CC50) was calculated using linear interpolation (Tables 7 and 8).

The structures appear in SMILES notation.

With `COc1cc(NC(C(=O)c2c[nH]c3c(F)cc(C)cc23)c2ccc(F)cc2OC)cc(OCCO)c1` (single isomer, unassigned) [Compound 12B, 2-(4-fluoro-2-methoxyphenyl)-1-(7-fluoro-5-methyl-1H-indol-3-yl)-2-((3-(2-hydroxyethoxy)-5-methoxyphenyl)amino)ethanone], the CC50 in data set [1] turned out to be 5.5 µM; in data set [5], 14 µM. Besides, the EC50 in data set [2] worked out at 0.02 µM; in data set [3] it was 0.29 µM. The compound further registered a CC50 at 3 days in data set [4] of 5 µM.
